Assay results taken from patent US12275718B2, “Small molecule inhibitors of galectin-3” (BRISTOL-MYERS SQUIBB COMPANY, priority 2018, dated 2025).

Target: His-tagged recombinant human Gal-3 (hGal-3) (Homo sapiens, UniProt P17931)
Assay: Gal-3 HTRF assay (His-tagged hGal-3 / B-ASF)
Format: binding
Conditions: hGal-3 15 nM, B-ASF 15 nM, room temperature, three replicates
Experimental: • ASSAY BUFFER Composition: 25 mM HEPES, 100 mM NaCl, 0.005% Tween 20, 0.05% BSA prepared in sterile water (all reagents from Sigma) Controls: • Positive Control: 100% DMSO (1 μl)+His-tagged hGal-3 (20 μL)+B-ASF (20 μl)+Anti-His Terbium Antibody (5 μl)+Strep d2 Antibody (5 μl). • Negative Control: […] (1 μl)+His-tagged hGal-3 (20 μL)+Anti His Terbium Antibody (5 μl)+Strep d2 Aantibody (5 μl). Stocks Preparation:
PROTOCOL: The Gal-3 assays were performed in 384 white Opti plates in three replicates at room temperature with gentle shaking at 250-300 rpm From the original stocks, […] working stock concentrations of His-tagged recombinant human Gal-3 (hGal-3) and that of B-ASF were prepared. From the working stock, 20 μl of hGal-3 (15 nM) and 20 μl B-ASF (15 nM) were added to the plates. In Negative Control, only hGal-3 was added. A concentration range of 50× working stocks were prepared for the compounds in […]. Aliquots of 1 uL of the compounds were added to the wells and pre-incubated with 20 μl hGal-3 per well for 30 minutes Then 20 μl B-ASF were added and incubated for another 1 hour. To detect the signal, 5 μL (final conc. of 1.0 nM) terbium labelled Anti-His antibody was added and incubated for 30 min followed by adding 5 μL (final conc. of 20 nM) Streptavidin d2 and incubation for another 1 hour. The assay signal was detected using HTRF screen protocol (Excitation wavelength=340 nm, emission wavelength=615 nm/665 nm) on Envision 2104 Multilabel Reader. Data analysed using Toolset and Curve Master. Results are reported in the experimental section (IC50 in μM).

Sequence of His-tagged recombinant human Gal-3 (hGal-3) (P17931 whole entry): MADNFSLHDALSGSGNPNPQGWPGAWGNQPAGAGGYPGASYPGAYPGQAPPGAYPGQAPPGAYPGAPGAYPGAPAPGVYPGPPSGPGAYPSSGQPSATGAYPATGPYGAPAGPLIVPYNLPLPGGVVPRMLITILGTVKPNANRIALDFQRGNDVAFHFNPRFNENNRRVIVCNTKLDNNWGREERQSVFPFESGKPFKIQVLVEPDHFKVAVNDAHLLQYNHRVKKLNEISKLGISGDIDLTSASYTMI

IC50 | Structure (SMILES)
2000 nM | Cc1nc([C@H]2O[C@@H](CO)[C@@H](O)[C@@H](n3cc(-c4cc(F)c(Cl)c(F)c4)nn3)[C@@H]2OCCCCCCCCO[C@@H]2[C@@H](n3cc(-c4cc(F)c(Cl)c(F)c4)nn3)[C@@H](O)[C@@H](CO)O[C@H]2c2nc(C)nn2-c2cc(Cl)ccc2Cl)n(-c2cc(Cl)ccc2Cl)n1 [Example 17, (2R,3R,4S,5R,6S)-4-(4-(4-chloro-3,5-difluorophenyl)-1H-1,2,3-triazol-1-yl)-5-((8-(((2R,3S,4R,5S,6S)-4-(4-(4-chloro-3,5-difluorophenyl)-1H-1,2,3-triazol-1-yl)-2-(1-(2,5-dichlorophenyl)-3-methyl-1H-1,2,4-triazol-5-yl)-5-hydroxy-6-(hydroxymethyl)tetrahydro-2H-pyran-3-yl)oxy)octyl)oxy)-6-(1-(2,5-dichlorophenyl)-3-methyl-1H-1,2,4-triazol-5-yl)-2-(hydroxymethyl)tetrahydro-2H-pyran-3-ol]
10 nM | Cc1nc([C@H]2O[C@@H](CO)[C@@H](O)[C@@H](n3cc(-c4ccc(Cl)c(F)c4)nn3)[C@@H]2OCC(=O)NCCCCCNC(=O)CO[C@@H]2[C@@H](n3cc(-c4ccc(Cl)c(F)c4)nn3)[C@@H](O)[C@@H](CO)O[C@H]2c2nc(C)nn2-c2cc(Cl)ccc2Cl)n(-c2cc(Cl)ccc2Cl)n1 [Example 5]
1 nM | Cc1nc([C@H]2O[C@@H](CO)[C@@H](O)[C@@H](n3cc(-c4cc(F)c(Cl)c(F)c4)nn3)[C@@H]2OCC(=O)NCCCCCNC(=O)CO[C@@H]2[C@@H](n3cc(-c4cc(F)c(Cl)c(F)c4)nn3)[C@@H](O)[C@@H](CO)O[C@H]2c2nc(C)nn2-c2cc(Cl)ccc2C(F)(F)F)n(-c2cc(Cl)ccc2C(F)(F)F)n1 [Example 8]
1 nM | Cc1nc(C2OC(CO)C(O)C(n3cc(-c4cc(F)c(F)c(F)c4)nn3)C2OCC(=O)NCCCCCNC(=O)COC2C(c3nc(C)nn3-c3cc(Cl)ccc3Cl)OC(CO)C(O)C2n2cc(-c3cc(F)c(F)c(F)c3)nn2)n(-c2cc(Cl)ccc2Cl)n1 (stereo not drawn) [Example 2]
1 nM | Cc1nc([C@H]2O[C@@H](CO)[C@@H](O)[C@@H](n3cc(-c4cc(F)c(Cl)c(F)c4)nn3)[C@@H]2OCC(=O)NCCCNC(=O)CO[C@@H]2[C@@H](n3cc(-c4cc(F)c(Cl)c(F)c4)nn3)[C@@H](O)[C@@H](CO)O[C@H]2c2nc(C)nn2-c2cc(Cl)ccc2C(F)(F)F)n(-c2cc(Cl)ccc2C(F)(F)F)n1 [Example 6]
5 nM | Cc1nc([C@H]2O[C@@H](CO)[C@@H](O)[C@@H](n3cc(-c4cc(F)c(Cl)c(F)c4)nn3)[C@@H]2OCC(=O)N(C)CCCCN(C)C(=O)CO[C@@H]2[C@@H](n3cc(-c4cc(F)c(Cl)c(F)c4)nn3)[C@@H](O)[C@@H](CO)O[C@H]2c2nc(C)nn2-c2cc(Cl)ccc2Cl)n(-c2cc(Cl)ccc2Cl)n1 [Example 15]
19 nM | Cc1nc(C2OC(CO)C(O)C(n3cc(-c4cc(F)c(F)c(F)c4)nn3)C2OC(=O)NCCCCNC(=O)OC2C(c3nc(C)nn3-c3cc(Cl)ccc3Cl)OC(CO)C(O)C2n2cc(-c3cc(F)c(F)c(F)c3)nn2)n(-c2cc(Cl)ccc2Cl)n1 [Example 18, (2R,3S,4R,5S,6S)-2-(1-(2,5-dichlorophenyl)-3-methyl-11H-1,2,4-triazol-5-yl)-5-hydroxy-6-(hydroxymethyl)-4-(4-(3,4,5-trifluorophenyl)-1H-1,2,3-triazol-1-yl)tetrahydro-2H-pyran-3-yl ((2S,3R,4S,5R,6R)-2-(1-(2,5-dichlorophenyl)-3-methyl-1H-1,2,4-triazol-5-yl)-5-hydroxy-6-(hydroxymethyl)-4-(4-(3,4,5-trifluorophenyl)-1H-1,2,3-triazol-1-yl)tetrahydro-2H-pyran-3-yl) butane-1,4-diyldicarbamate]
1 nM | Cc1nc([C@H]2O[C@@H](CO)[C@@H](O)[C@@H](n3cc(-c4cc(F)c(Cl)c(F)c4)nn3)[C@@H]2OCC(=O)NCCCCCNC(=O)CO[C@@H]2[C@@H](n3cc(-c4cc(F)c(Cl)c(F)c4)nn3)[C@@H](O)[C@@H](CO)O[C@H]2c2nc(C)nn2-c2cc(Cl)ccc2Cl)n(-c2cc(Cl)ccc2Cl)n1 [Example 11]
10 nM | Cc1nc([C@H]2O[C@@H](CO)[C@@H](O)[C@@H](n3cc(-c4cc(F)c(Cl)c(F)c4)nn3)[C@@H]2OCC(=O)NCCCCCCCNC(=O)CO[C@@H]2[C@@H](n3cc(-c4cc(F)c(Cl)c(F)c4)nn3)[C@@H](O)[C@@H](CO)O[C@H]2c2nc(C)nn2-c2cc(Cl)ccc2Cl)n(-c2cc(Cl)ccc2Cl)n1 [Example 10]
6 nM | Cc1nc([C@H]2O[C@@H](CO)[C@@H](O)[C@@H](n3cc(-c4cc(F)c(Cl)c(F)c4)nn3)[C@@H]2OCC(=O)NCCCCCCNC(=O)CO[C@@H]2[C@@H](n3cc(-c4cc(F)c(Cl)c(F)c4)nn3)[C@@H](O)[C@@H](CO)O[C@H]2c2nc(C)nn2-c2cc(Cl)ccc2Cl)n(-c2cc(Cl)ccc2Cl)n1 [Example 9]
4 nM | Cc1nc([C@H]2O[C@@H](CO)[C@@H](O)[C@@H](n3cc(-c4cc(F)c(Cl)c(F)c4)nn3)[C@@H]2OCC(=O)N2CCCN(C(=O)CO[C@@H]3[C@@H](n4cc(-c5cc(F)c(Cl)c(F)c5)nn4)[C@@H](O)[C@@H](CO)O[C@H]3c3nc(C)nn3-c3cc(Cl)ccc3Cl)CC2)n(-c2cc(Cl)ccc2Cl)n1 [Example 23]
1 nM | Cc1nc([C@H]2O[C@@H](CO)[C@@H](O)[C@@H](n3cc(-c4cc(F)c(Cl)c(F)c4)nn3)[C@@H]2OCC(=O)NCCCCNC(=O)CO[C@@H]2[C@@H](n3cc(-c4cc(F)c(Cl)c(F)c4)nn3)[C@@H](O)[C@@H](CO)O[C@H]2c2nc(C)nn2-c2cc(Cl)ccc2Cl)n(-c2cc(Cl)ccc2Cl)n1 [Example 12]
1 nM | Cc1nc([C@H]2O[C@@H](CO)[C@@H](O)[C@@H](n3cc(-c4cc(F)c(Cl)c(F)c4)nn3)[C@@H]2OCC(=O)NCCCCNC(=O)CO[C@@H]2[C@@H](n3cc(-c4cc(F)c(Cl)c(F)c4)nn3)[C@@H](O)[C@@H](CO)O[C@H]2c2nc(C)nn2-c2cc(Cl)ccc2C(F)(F)F)n(-c2cc(Cl)ccc2C(F)(F)F)n1 [Example 7]
110 nM | Cc1nc([C@H]2O[C@@H](CO)[C@@H](O)[C@@H](n3cc(-c4cc(F)c(Cl)c(F)c4)nn3)[C@@H]2OC(=O)NCCCNC(=O)O[C@@H]2[C@@H](n3cc(-c4cc(F)c(Cl)c(F)c4)nn3)[C@@H](O)[C@@H](CO)O[C@H]2c2nc(C)nn2-c2cc(Cl)ccc2Cl)n(-c2cc(Cl)ccc2Cl)n1 [Example 19, (2R,3S,4R,5S,6S)-4-(4-(4-chloro-3,5-difluorophenyl)-1H-1,2,3-triazol-1-yl)-2-(1-(2,5-dichlorophenyl)-3-methyl-1H-1,2,4-triazol-5-yl)-5-hydroxy-6-(hydroxymethyl)tetrahydro-2H-pyran-3-yl ((2S,3R,4S,5R,6R)-4-(4-(4-chloro-3,5-difluorophenyl)-1H-1,2,3-triazol-1-yl)-2-(1-(2,5-dichlorophenyl)-3-methyl-1H-1,2,4-triazol-5-yl)-5-hydroxy-6-(hydroxymethyl)tetrahydro-2H-pyran-3-yl) propane-1,3-diyldicarbamate]
1 nM | Cc1nc([C@H]2O[C@@H](CO)[C@@H](O)[C@@H](n3cc(-c4cc(F)c(Cl)c(F)c4)nn3)[C@@H]2OCC(=O)NCCNC(=O)CO[C@@H]2[C@@H](n3cc(-c4cc(F)c(Cl)c(F)c4)nn3)[C@@H](O)[C@@H](CO)O[C@H]2c2nc(C)nn2-c2cc(Cl)ccc2Cl)n(-c2cc(Cl)ccc2Cl)n1 [Example 13]
10000 nM | Cc1nc([C@H]2O[C@@H](CO)[C@@H](O)[C@@H](n3cc(-c4ccc(Cl)c(F)c4)nn3)[C@@H]2OCCCCCCCCCCO[C@@H]2[C@@H](n3cc(-c4ccc(Cl)c(F)c4)nn3)[C@@H](O)[C@@H](CO)O[C@H]2c2nc(C)nn2-c2cc(Cl)ccc2Cl)n(-c2cc(Cl)ccc2Cl)n1 [Example 16, (2R,3R,4S,5R,6S)-4-(4-(4-chloro-3-fluorophenyl)-1H-1,2,3-triazol-1-yl)-5-((10-(((2R,3S,4R,5S,6S)-4-(4-(4-chloro-3-fluorophenyl)-1H-1,2,3-triazol-1-yl)-2-(1-(2,5-dichlorophenyl)-3-methyl-1H-1,2,4-triazol-5-yl)-5-hydroxy-6-(hydroxymethyl)tetrahydro-2H-pyran-3-yl)oxy)decyl)oxy)-6-(1-(2,5-dichlorophenyl)-3-methyl-1H-1,2,4-triazol-5-yl)-2-(hydroxymethyl)tetrahydro-2H-pyran-3-ol]
2 nM | Cc1nc([C@H]2O[C@@H](CO)[C@@H](O)[C@@H](n3cc(-c4cc(F)c(Cl)c(F)c4)nn3)[C@@H]2OCC(=O)N(C)CCN(C)C(=O)CO[C@@H]2[C@@H](n3cc(-c4cc(F)c(Cl)c(F)c4)nn3)[C@@H](O)[C@@H](CO)O[C@H]2c2nc(C)nn2-c2cc(Cl)ccc2Cl)n(-c2cc(Cl)ccc2Cl)n1 [Example 21]
4 nM | Cc1nc([C@H]2O[C@@H](CO)[C@@H](O)[C@@H](n3cc(-c4cc(F)c(Cl)c(F)c4)nn3)[C@@H]2OCC(=O)N2CCN(C(=O)CO[C@@H]3[C@@H](n4cc(-c5cc(F)c(Cl)c(F)c5)nn4)[C@@H](O)[C@@H](CO)O[C@H]3c3nc(C)nn3-c3cc(Cl)ccc3Cl)CC2)n(-c2cc(Cl)ccc2Cl)n1 [Example 22]
